{"source": "a melting point compilation (Tetko et al.; mined from patent text by program, amines drawn as free bases though some values may be those of a salt)"}
{"units": {"melting point": "°C"}}
{"smiles": "Cc1cc(C(N)(C(F)(F)F)C(F)(F)F)cc(C)c1OCC(=O)O", "melting point": 138}
{"smiles": "NC(=O)c1occc1C(=O)NC1CCN(Cc2ccc3ccccc3c2)CC1", "melting point": "157 to 159"}
{"smiles": "C#Cc1cccc(Nc2ncnc3cc4c(cc23)OCO4)c1", "melting point": "> 350"}
{"smiles": "CCCC12CCC3c4ccc(OC)cc4CCC3C1CCC2O", "note": "(stereo not given)", "melting point": "141 to 143"}
{"smiles": "Cc1ccc(-c2ccccc2CC(N)=NO)cc1", "melting point": "127 to 128"}
{"smiles": "COc1ccc(C(Nc2ccc(C(=N)NO)cc2)C(=O)O)c(OCCO)c1", "note": "(racemic)", "melting point": 205}
{"smiles": "CC(C)(C)OC(=O)N1CCn2c(c(C#N)c(Cl)c2C2CC2)C1", "melting point": "132 to 134"}
{"smiles": "CCc1nc(Cl)c2sccc2n1", "melting point": "46 to 48"}
{"smiles": "O=C(Nc1ccc(C2(F)CCN(C(=O)OCc3ccccc3)CC2)c(F)c1)OCc1ccccc1", "melting point": "116 to 118"}
{"smiles": "CCNn1cc(C(=O)O)c(=O)c2cc(F)c(N3CCNCC3)cc21", "melting point": "289 to 291"}
{"smiles": "COc1cccc2oc(-c3ccc(F)cc3)cc(=O)c12", "melting point": 178}
{"smiles": "CCOCCn1cc2c(C3C(=O)Nc4ccc(Br)cc43)nc(NCC(C)O)nc2n1", "note": "(stereo not given)", "melting point": "298 to 300"}
{"smiles": "O=C(Nc1cc(Cl)c(O)c(Cl)c1)c1ccc(F)cc1O", "melting point": "223 to 224"}
{"smiles": "COc1ccc(C2=NN(c3ccc(-c4nnn(Cc5ccccc5)n4)cc3)C(=O)[C@H]3CC=CC[C@@H]23)cc1OC", "note": "(relative stereo)", "melting point": "100 to 102"}
{"smiles": "COc1cccc(OC)c1CNC(=O)Cc1c(-c2ccccc2C)c2cc(Cl)ccc2oc1=O", "melting point": "194 to 196"}
{"smiles": "CCOP(=O)(O)Cc1nnc2c(=O)[nH]c3cc(C(F)(F)F)ccc3n12", "melting point": "276 to 280"}
{"smiles": "O=C1CCC(c2cccc(F)c2)(c2cccc(F)c2)[C@@H]2CN(C(=O)Cc3ccccc3)C[C@H]12", "note": "(racemic)", "melting point": 108}
{"smiles": "COc1ccc(S(=O)(=O)Nc2ccccc2NC(=O)c2ccc(F)cc2)cc1", "melting point": "169 to 170"}
{"smiles": "CCOC(=O)OC1=C(c2c(C)cc(C)cc2C)C(=O)N(O)C12CCN(OC)CC2", "melting point": "154 to 155"}
{"smiles": "CCOC(=O)c1cnc2c(F)c(Br)c(F)cc2c1O", "melting point": 285}
{"smiles": "CCN(CC)CCNC(=O)c1cccc2cc3c(I)cccc3nc12", "melting point": "78 to 80"}
{"smiles": "O=Cc1nccn1Cc1ccccc1[N+](=O)[O-]", "melting point": "141 to 144"}
{"smiles": "CC(=O)NC[C@H]1CN(c2ccc(N3CCC(n4nnnc4CS(C)(=O)=O)CC3)c(F)c2)C(=O)O1", "melting point": 192}
{"smiles": "CN1C(C)(C)CC(N(CCCCCCN(C2CC(C)(C)N(C)C(C)(C)C2)P2OCC(C)(C)CO2)P2OCC(C)(C)CO2)CC1(C)C", "melting point": 103}
{"smiles": "CC(O)c1ccc(-c2ccc(S(C)(=O)=O)cc2)o1", "note": "(stereo not given)", "melting point": "118 to 120"}
{"smiles": "CC(C)c1ccc(NC(=O)C2CCCc3c(OCc4ccccc4)cccc32)cn1", "note": "(stereo not given)", "melting point": 157}
{"smiles": "CCc1c(-c2cccnn2)ssc1=S", "melting point": 130}
{"smiles": "CCCCc1nc2c(N)nc3cc(-c4ccccc4OCCC)ccc3c2n1CC(C)C", "melting point": "174 to 176"}
{"smiles": "COc1ccc2c(c1)c(CC(=O)O)c(C)n2C(=O)c1ccc(Cl)c(Cl)c1", "melting point": "95 to 97"}
{"smiles": "Cc1nc(-c2c(Cl)cc(C(F)(F)F)cc2Cl)[nH]c1C", "melting point": "281 to 282"}
{"smiles": "O=C(Nc1ccc2ccccc2c1C(=O)O)OCc1cc2cc(-c3ccccc3)ccc2o1", "melting point": "174 to 177"}
{"smiles": "CC(=O)OCC1OC(n2cc(SC#N)c(=O)[nH]c2=O)CC1(O)C(C)=O", "note": "(stereo not given)", "melting point": "106 to 108"}
{"smiles": "CNC(=O)c1cccc(Nc2ncnc3[nH]cc(C(=O)c4cccc5ccccc45)c23)c1", "melting point": "> 300"}
{"smiles": "COc1ccc(CCNc2c(C)c(C)c3c(c2C)C(c2ccc(C(C)C)cc2)C(C)(C)O3)cc1", "note": "(stereo not given)", "melting point": "63 to 65"}
{"smiles": "CN1CCC(c2c[nH]c3ccc(NC(=O)C4CCCC4)nc23)CC1", "melting point": "119 to 121"}
{"smiles": "COc1ccc(-c2nc(-c3ccc(Br)cc3)sc2-c2ccc(OC)cc2)cc1", "melting point": "155 to 157"}
{"smiles": "Nc1cc(Cl)nc(Cl)c1[N+](=O)[O-]", "melting point": "136 to 138"}
{"smiles": "CCCc1c(OCCCOc2ccc(-c3nnn[nH]3)cc2Cl)ccc(C(C)=O)c1O", "melting point": "214 to 216"}
{"smiles": "Cc1ccc(-c2nc3ccccc3[nH]2)nc1", "melting point": "229 to 230"}
{"smiles": "O=C(C=P(c1ccccc1)(c1ccccc1)c1ccccc1)CSc1ccccc1", "melting point": "132 to 134"}
{"smiles": "O=C(CCOCc1ccc2ccccc2c1)c1ccccc1", "melting point": "56 to 57"}
{"smiles": "O=C(O)c1[nH]c(=O)c2ccc(Cl)cc2c1-c1ccccc1", "melting point": "> 300"}
{"smiles": "CCSc1cc(C)nc(SCC)c1NC(=O)CCCCCCCSc1nc2c(C)c(Cl)cc(C(C)C)c2o1", "melting point": "82 to 84"}
{"smiles": "COc1nc(C)cnc1NS(=O)(=O)c1cccnc1-c1ccc(OC(C)(C)CO)cc1", "melting point": "182 to 184"}
{"smiles": "CC(=O)c1ccc(S(=O)(=O)Nc2ccccn2)cc1", "melting point": "198 to 199"}
{"smiles": "COC(=O)C(=O)c1ccc(OCCOc2ccc3ccccc3c2)cc1F", "melting point": "135 to 136"}
{"smiles": "CC(C)(C)OC(=O)[C@@H]1CN(Cc2ccccc2)C(=O)N1", "melting point": "96 to 98"}
{"smiles": "O=C(Nc1ccc(F)cc1)N1CCc2cc(S(=O)(=O)N3CCN(c4cccc(Cl)c4)CC3)ccc21", "melting point": "192 to 194"}
{"smiles": "O=C(Cc1ccccc1)Nc1n[nH]c(-c2ccc(F)cc2)c1-c1ccncc1", "melting point": "289 to 290"}
{"smiles": "COC(=O)c1cccc(CN2C(=O)C3(COc4cc5c(cc43)CCO5)c3ccccc32)c1", "note": "(stereo not given)", "melting point": "97 to 98"}
{"smiles": "CCOC(=O)c1cccc(NC(=O)c2cc(C(C)C)c(C(C)C)o2)c1", "melting point": "144 to 145"}
{"smiles": "CCCc1n[nH]cc1-c1nsc(Nc2ccccn2)n1", "melting point": "248 to 250"}
{"smiles": "CC(NC(=O)Nc1ccc(CN2C(=O)C3CCCC3N(C(=O)CN3C(=O)c4ccccc4C3=O)c3ccccc32)cc1)c1ccccc1", "note": "(stereo not given)", "melting point": "156 to 160"}
{"smiles": "CNc1cccc2c(=O)c(C)c(-c3ccccc3)oc12", "melting point": "143 to 146"}
{"smiles": "COc1cccc(C2Nn3cc(-c4cc(-c5ccc(Cl)cc5Cl)no4)nc3S2)c1", "note": "(stereo not given)", "melting point": "195 to 198"}
{"smiles": "Cc1c(-n2ccnc2)n(CCOc2ccc(C(=O)O)cc2)c2ccccc12", "melting point": "> 300"}
{"smiles": "CN1CCN(C(=O)c2cccn2Cc2ccccc2N)CC1", "melting point": "139 to 141"}
{"smiles": "COCOc1c(OC)cc(C=CC(=O)c2c(OC)cc(OC)c(CC=C(C)C)c2O)cc1OC", "melting point": "128 to 129"}
{"smiles": "CC(C)(CO)CCCCC(CCCCC(C)(C)CO)(C(=O)O)C(=O)O", "melting point": "178 to 180"}
{"smiles": "O=[N+]([O-])c1ccc(-c2ncnn2-c2ccccc2F)cc1", "melting point": "143 to 145"}
{"smiles": "CCOP(=O)(CCOC(=O)c1c(I)c(NC(C)=O)c(I)c(NC(C)=O)c1I)OCC", "melting point": "249 to 251"}
{"smiles": "O=Cc1ccc(O)c(OCc2ccccc2)c1Cl", "melting point": "149 to 150"}
{"smiles": "CCN(C)c1ccc(C(=O)c2ccc(N(C)CC)cc2)cc1", "melting point": "122 to 124"}
{"smiles": "O=c1[nH]c2ccc(S(=O)(=O)O)cc2[nH]c1=O", "melting point": "> 300"}
{"smiles": "Cc1cc(OC(F)F)nc(NC(=O)NS(=O)(=O)c2ccccn2)n1", "melting point": "150 to 151"}
{"smiles": "CO[C@@H]1CN(Cc2ccccc2)C[C@H]1NC(=O)OC(C)(C)C", "melting point": "44 to 45"}
{"smiles": "CC(C)C(C)(C(N)=O)N1C(=O)c2ccccc2C1=O", "note": "(stereo not given)", "melting point": "118 to 119"}
{"smiles": "CC(C)Oc1ccc(-c2cncc(OC3SCC(O)C(O)C3O)c2)cc1", "note": "(stereo not given)", "melting point": 158}
{"smiles": "COc1ccnc(CCc2nc3cc(-c4ccc(S(=O)(=O)N(CCO)CCO)cc4)cnc3[nH]2)c1", "melting point": "127 to 128"}
{"smiles": "CC(=O)Nc1ccc(S(=O)(=O)NCCCn2ccnc2)cc1", "melting point": "178 to 180"}
{"smiles": "CC(=O)N(c1ccc(F)cc1Cl)S(=O)(=O)CCl", "melting point": "89 to 92"}
{"smiles": "Cc1cc(-n2ccnc2)c2cccc(OCc3c(Cl)ccc(S(=O)(=O)N4CCC[C@H]4C(=O)NC4CC4)c3Cl)c2n1", "melting point": 108}
{"smiles": "c1ccc(COc2ccc([C@H]3CO3)cc2)cc1", "melting point": "56 to 61"}
{"smiles": "C1=CC(n2c(-c3ccc4c(c3)OCO4)nc3ccccc32)CCC1", "note": "(stereo not given)", "melting point": "119 to 120"}
{"smiles": "COC(=O)c1ccc(CC(C#N)(c2ccccc2Cl)N2CCOCC2)cc1", "note": "(stereo not given)", "melting point": "116 to 118"}
{"smiles": "CCc1cc(CC(=O)O)n(C)c1C(=O)c1ccc(Cl)cc1", "melting point": "129 to 131"}
{"smiles": "CCC1(CC)CCNC1=O", "melting point": "52 to 53"}
{"smiles": "CN1CCC2(CC1)c1ccccc1Oc1c(N)cccc12", "melting point": "173 to 174"}
{"smiles": "C#Cc1ccc(Nc2c(-c3nnc(NCCO)o3)ccc(F)c2F)c(F)c1", "melting point": "112 to 115"}
{"smiles": "O=C1NC2Cc3ccccc3C2O1", "note": "(stereo not given)", "melting point": "205 to 206"}
{"smiles": "Cc1nnn(CC(I)=C(I)I)n1", "melting point": 111}
{"smiles": "O=C(O)CCOC(c1ccccc1)(c1ccccc1)c1ccccc1", "melting point": "159 to 161"}
{"smiles": "CC(C)(CO)NC(=O)CBr", "melting point": "107 to 109"}
{"smiles": "Cc1cccc2c1NS(=O)(=O)N(C(C)C)C2=O", "melting point": 124}
{"smiles": "CCS(=O)(=O)c1cc2c(c(C(=O)O)c1)OCCO2", "melting point": "217 to 218"}
{"smiles": "COc1ccc(C2=CCOCC2)cc1[N+](=O)[O-]", "melting point": "117 to 120"}
{"smiles": "CCC(Oc1cc(F)ccc1F)C1=NCCN1", "note": "(stereo not given)", "melting point": 110}
{"smiles": "CC1(C(=O)Nc2ccc(-n3nc(C(F)(F)F)cc3C(F)(F)F)cc2)CC1", "melting point": "109 to 110"}
{"smiles": "CN1CC=C(c2c[nH]c3ccc(NC(=N)c4cccs4)cc23)CC1", "melting point": "215 to 218"}
{"smiles": "Cc1nc2ccc(NC(=O)COCc3ccccc3)cc2c(=O)n1C1CCC(=O)NC1=O", "note": "(stereo not given)", "melting point": "248 to 250"}
{"smiles": "C=C(C)Sc1oc2cc(OC)ccc2c(=O)c1-c1ccccc1", "melting point": "117 to 118"}
{"smiles": "CCCCOc1ccc(S(C)(=O)=O)cc1-c1nc2c(CC)n(CCOC)nc2c(=O)[nH]1", "melting point": "174 to 176"}
{"smiles": "COc1cc2ncc(C#N)c(Nc3ccc(O)c(Cl)c3)c2cc1OC", "melting point": "230 to 232"}
{"smiles": "Cc1c(C#N)c(-c2ccc(C#N)cc2)c(C)n1Cc1cnc(Cl)c(COC(=O)CCC(=O)O)c1", "melting point": "187 to 188"}
{"smiles": "COc1cc(O)cc2c1C(Br)=C(c1ccc(O)cc1)C2=O", "melting point": 210}
{"smiles": "CN(C)Cc1c(-c2ccccn2)[nH]c2ncnc(Nc3cccc(Cl)c3)c12", "melting point": "247 to 251"}
{"smiles": "CCCCCCCNC(=O)N(C)c1cccc(-c2ccc(CC3SC(=O)NC3=O)cc2)c1", "note": "(stereo not given)", "melting point": 55}
{"smiles": "O=Cc1ccc(-c2ccc3nc[nH]c(=O)c3c2)o1", "melting point": 267}
{"smiles": "Clc1c(-c2cnco2)[nH]c2ccccc12", "melting point": "131 to 134"}
{"smiles": "Cc1cc2nnn(C(=O)N3CCOCC3)c2cc1C", "melting point": 191}
